Experiments:
Type in all cases: in vivo
[1] = tested on: human hepatoma cells (HepG2); assay: Tumor inhibition in HepG2 tumor-bearing nude mice, probiotic component/lysine (Example 7, Table 12); settings: dosed twice, interval 7 days, 7th day after final administration, probiotic component = supernatant component of disrupted Saccharomyces cerevisiae
Method: (§1) In the following examples of the present invention, the combinational pharmaceutical efficacies (drug efficacies) of drug A and drug B co-administration was determined by ratio q of actual pharmaceutical efficacy (drug efficacy)/theoretical pharmaceutical efficacy (drug efficacy) according to Zhengjun JIN method, as follows.
Nude mice were used as experimental subjects, and human hepatoma cells (HepG2) were used as modeling cells. […] The model animals were randomly divided into 13 groups, and the drugs were administered according to Table 12. […] Each group was dosed twice at an interval of 7 days with an injection volume of […]. On the 7th day after final administration, the animals were euthanized, and the tumor tissues were taken out after dissection to determine the tumor weight, and the tumor inhibition rate was calculated relative to the negative control group.

[2] = tested on: breast cancer 4T1 cells; assay: Extra-tumoral local administration in 4T1 tumor-bearing BALB/c mice, R7d/R21d (Example 11, Table 17); settings: subaxillary intradermal (extra-tumoral), twice at 7-day interval, 120 μl/mouse/time; for R7 d (relative tumor proliferation rate): day 7 after last dose; for R21 d (relative tumor proliferation rate): day 21 after last dose
Method: (§2) V=0.5×a×b^2, wherein a and b represent the length and width of the local lesion, respectively; Volume of the local lesion (e.g. tumor):
(§3) Local lesion (e.g., tumor) proliferation rate (R)=TV/CV×100, wherein TV and CV are the local lesion volumes in the study group and negative control group, respectively;
as §1
BALB/c mice were used as experimental subjects, and breast cancer 4T1 cells were used as modeling cells. 0.25×10^5 cells/mouse were injected into the right axilla subcutaneously for transplantation tumor modeling. On the 5th day after modeling, the test animals with visually obvious tumors were randomly divided into 12 groups, having 10 animals in each group. […] In groups 1-11, on days 7 and 21 after the last dose the tumor volume (V7d, V21d) were measured, and the relative tumor proliferation rates (R7d, R21d) were calculated relative to the negative control group on days 7 and 21 after the dose, so that the short-term therapeutic effectiveness (100%−R7d) and the medium- and long-term therapeutic effectiveness (100%−R21d) could be calculated, respectively. Further, based on the short-term therapeutic effectiveness and the medium- and long-term therapeutic effectiveness, the actual/expected ratio for short-term pharmaceutical efficacies q7d and the actual/expected ratio for medium- and long-term pharmaceutical efficacies q21d were calculated respectively.

[3] = tested on: human pancreatic cancer cells (PANC-1); assay: Tumor inhibition in PANC-1 tumor-bearing nude mice, probiotic component/gemcitabine (Example 7, Table 13); settings: dosed once, 100 μl/mouse/time, 7th day, probiotic component = supernatant component of disrupted Saccharomyces cerevisiae
Description: The method for determining the effect of combined drug administration in animal experiments was Burgi method (Burgi Y. Pharmacology; Drug actions and reactions. […] The Burgi method was modified by Zhengjun JIN (Zhengjun JIN, Equal probability and curve and “Q50”, Journal of the Second Shanghai Medical College; 1981, 1, 75-86) with q calculated as: q=EA+B/(EA+EB-EA×EB). In the following examples of the present invention, the combinational pharmaceutical efficacies (drug efficacies) of drug A and drug B co-administration was determined by ratio q of actual pharmaceutical efficacy (drug efficacy)/theoretical pharmaceutical efficacy (drug efficacy) according to Zhengjun JIN method, as follows. […] The model animals were randomly divided into 13 groups, and the drugs were administered according to Table 13.

[4] = tested on: lung tumor cells (A549); assay: Tumor inhibition in A549 tumor-bearing nude mice, co-administration (Example 5, Table 7); settings: dosed once, 7th day, probiotic component = heat-inactivated Saccharomyces boulardii
Description: (§4) The method for determining the effect of combined drug administration in animal experiments was Burgi method (Burgi Y. Pharmacology; Drug actions and reactions. Cancerres. 1978, 38(2), 284-285). The Burgi method was modified by Zhengjun JIN (Zhengjun JIN, Equal probability and curve and “Q50”, Journal of the Second Shanghai Medical College; 1981, 1, 75-86) with q calculated as: q=EA+B/(EA+EB−EA×EB). In the following examples of the present invention, the combinational pharmaceutical efficacies (drug efficacies) of drug A and drug B co-administration was determined by ratio q of actual pharmaceutical efficacy (drug efficacy)/theoretical pharmaceutical efficacy (drug efficacy) according to Zhengjun JIN method, as follows.
Nude mice were used as experimental subjects, and lung tumor cells (A549) were used as modeling cells, 1×10^5 cells/mouse were injected into the right axilla subcutaneously for transplantation tumor modeling, and the average tumor volume of successfully modeled nude mice was 153.7 mm^3. The model animals were randomly divided into 18 groups, and the drugs were administered according to the drug components and administration route in Table 7. Each group was dosed once with an injection volume of […]. Wherein, the probiotic component was heat-inactivated Saccharomyces boulardii, and the administration route of group 16 was intra-tumoral injection of probiotic component followed by intra-tumoral injection of 10% arginine about 2 hours later. On the 7th day after drug administration, the animals were euthanized, and after dissection, the tumor tissue was taken out to determine the tumor weight, and the tumor inhibition rate (r) was calculated relative to the negative control group. Further, the actual efficacy/expected efficacy ratio q of a drug could also be calculated according to the therapeutic effect (tumor inhibition rate).

[5] = tested on: breast cancer 4T1 cells; assay: Short- and medium/long-term relative tumor proliferation rate in 4T1 tumor-bearing BALB/c mice (Example 10, Table 16); settings: intratumoral injection, dosed twice at interval of 7 days, 100 μl/mouse/time
Description: as §2, §3, §4
BALB/c mice were used as experimental subjects, and breast cancer 4T1 cells were used as modeling cells. 0.5×10^6 cells/mouse were injected into the right axilla subcutaneously for transplantation tumor modeling, and the average tumor volume of successfully modeled nude mice was 107.4 mm^3. The model animals were randomly divided into 17 groups.
The drugs, formulated according to the method of Example 1, were administered according to Table 16. Each group was dosed twice with an interval of 7 days, and the injection volumes were 300 μl/mouse/time for groups 13 and 14, 100 μl/mouse/time for other groups. The drugs were administered by subaxillary administration of the right forelimb for group 15, and by intratumoral injection for other groups. Group 16 was administered sequentially (the first dose was aprobiotic semi-fluid-like component/cytotoxic drug/weak local acting compound, and the last dose was inactivated probiotics), while the other groups were administered with the same drug twice. On days 7 and 21 after the last dose, the tumor volumes of each group were measured (V7d, V21d), and the relative tumor proliferation rates (R7d, R21d) were calculated relative to the negative control group, respectively, so that the short-term therapeutic effectiveness (100%−R7d) and the medium- and long-term therapeutic effectiveness (100%−R21d) could be calculated, respectively.

[6] = tested on: human liver cancer HepG2 cells; assay: Tumor inhibition in HepG2 tumor-bearing nude mice (Example 2, Table 4); settings: dosed once, 150 μl/mouse; for Tumor weight (x ± s): 7th day after administration; for Tumor inhibition rate r: 7th day, relative to negative control
Method: The tumor-bearing nude mice were widely used for drug studies on chemotherapy rather than immunotherapy in patients with solid tumors. Taking nude mice as experimental subjects, human liver cancer HepG2 cells were used as modeling cells, and 1×10^5 cells/mouse were injected into the right axilla subcutaneously for transplantation tumor modeling, and the average tumor volume of successfully modeled nude mice was 161.3 mm^3. The model animals were randomly divided into 17 groups. The drugs were administered according to the drug and dosing method in Table 4. Each group was dosed once with an injection volume of 150 μl/mouse. On the 7th day after drug administration, the animals were euthanized, and after dissection, the tumor tissue was taken out to determine the tumor weight, and the tumor inhibition rate (r) was calculated relative to the negative control group.

[7] = tested on: breast cancer 4T1 cells; assay: Short-term tumor inhibition in 4T1 tumor-bearing BALB/c mice (Example 9, Table 14); settings: dosed twice, 7th day after final administration
Description: as §4
BALB/c mice were used as experimental subjects, and breast cancer 4T1 cells were used as modeling cells. 0.5×10^6 cells/mouse were injected into the right axilla subcutaneously for transplantation tumor modeling, and the average tumor volume of successfully modeled nude mice was 160.1 mm^3. The model animals were randomly divided into 21 groups, and the drugs were administered by intravenous injection (series A) and intratumoral injection (series B) according to the drugs and doses in Table 14, respectively. All the drugs administered were aqueous liquids, which were formulated according to the method of Example 1. Each group was dosed twice. On the 7th day after final administration, the animals were euthanized, and the tumor tissues were taken out after dissection to determine the tumor weight, and the tumor inhibition rates rA and rB were calculated relative to the corresponding negative control groups in series A and series B.

[8] = listed as 20% lysine, 20% lysine
[9] = intratumoral injection, '+' = arginine injected about 2 hours later

Which Tumor inhibition rate [1] does the source give for `NCCCC[C@H](N)C(=O)O` [25% lysine, lysine] here?
The Tumor inhibition rate was 54.1%.

What about the “Tumor weight (x ± s)” value [1] of the same molecule?
The value was 0.109 ± 0.074 g.

What about the Tumor inhibition rate ([1]; 5% lysine) of the same molecule?
Its Tumor inhibition rate is 11.3%.

What about the “Tumor weight (x ± s)” value ([1]; 5% lysine) of the same molecule?
The value was 0.211 ± 0.091 g.

What about the Tumor inhibition rate ([1]; listed as 1% lysine, 1% lysine) of the same molecule?
Its Tumor inhibition rate is 5.2%.

What about the “Tumor weight (x ± s)” value ([1]; listed as 1% lysine, 1% lysine) of the same molecule?
Its value is 0.226 ± 0.112 g.

What about the Tumor inhibition rate [1, 8] of the same molecule?
The Tumor inhibition rate was 43.6%.

And the “Tumor weight (x ± s)” value [1, 8]?
The value was 0.134 ± 0.073 g.

And the “R7 d (relative tumor proliferation rate)” value [2]?
The value was 96%.

And the “R21 d (relative tumor proliferation rate)” value [2]?
The value was 102%.

`Nc1ccn([C@@H]2O[C@H](CO)[C@@H](O)C2(F)F)c(=O)n1` [5% gemcitabine, gemcitabine] was tested. Which Tumor inhibition rate [3] did it give?
The Tumor inhibition rate was 35.1%.

What about the “Tumor weight (x ± s)” value [3] of the same molecule?
Its value is 0.191 ± 0.077 g.

What about the Tumor inhibition rate ([3]; listed as 0.05% gemcitabine) of the same molecule?
The Tumor inhibition rate was 5.6%.

And the Tumor inhibition rate ([3]; listed as 0.1% gemcitabine)?
Its Tumor inhibition rate is 7.8%.

What about the Tumor inhibition rate ([3]; listed as […] gemcitabine) of the same molecule?
The Tumor inhibition rate was 30.4%.

What about the “Tumor weight (x ± s)” value ([3]; listed as […] gemcitabine) of the same molecule?
Its value is 0.204 ± 0.103 g.

What does the source list for `N=C(N)NCCC[C@H](N)C(=O)O` [10% arginine, arginine]?
Tumor inhibition rate r [4, 9]: 24.7%; Tumor weight (x ± s) [4, 9]: 0.164 ± 0.061 g; Tumor inhibition rate r ([4]; intravenous injection): 6.4%; Tumor weight (x ± s) ([4]; intravenous injection): 0.196 ± 0.077 g

B1: interleukin-12 (protein, UniProt P29459 23-219; P29460 23-328, looked up)
Interleukin-12 subunit alpha: RNLPVATPDPGMFPCLHHSQNLLRAVSNMLQKARQTLEFYPCTSEEIDHEDITKDKTSTVEACLPLELTKNESCLNSRETSFITNGSCLASRKTSFMMALCLSSIYEDLKMYQVEFKTMNAKLLMDPKRQIFLDQNMLAVIDELMQALNFNSETVPQKSSLEEPDFYKTKIKLCILLHAFRIRAVTIDRVMSYLNAS
Interleukin-12 subunit beta: IWELKKDVYVVELDWYPDAPGEMVVLTCDTPEEDGITWTLDQSSEVLGSGKTLTIQVKEFGDAGQYTCHKGGEVLSHSLLLLHKKEDGIWSTDILKDQKEPKNKTFLRCEAKNYSGRFTCWWLTTISTDLTFSVKSSRGSSDPQGVTCGAATLSAERVRGDNKEYEYSVECQEDSACPAAEESLPIEVMVDAVHKLKYENYTSSFFIRDIIKPDPPKNLQLKPLKNSRQVEVSWEYPDTWSTPHSYFSLTFCVQVQGKSKREKKDRVFTDKTSATVICRKNASISVRAQDRYYSSSWSEWASVPCS
notes: immunoenhancement control
What does the source list for B1?
relative tumor proliferation rate R7 d ([5]; day 7 after last dose): 95%; relative tumor proliferation rate R21 d ([5]; day 21 after last dose): 96%; R7 d (relative tumor proliferation rate) [2]: 99%; R21 d (relative tumor proliferation rate) [2]: 97%; Tumor weight (x ± s) ([6]; intratumoral injection): 0.241 ± 0.111 g; Tumor inhibition rate r ([6]; intratumoral injection): 8.1%; Tumor weight (x ± s) ([6]; intravenous injection): 0.230 ± 0.102 g; Tumor inhibition rate r ([6]; intravenous injection): 4.7%; tumor inhibition rate rA ([7]; series A: intravenous injection): 5.3%; tumor inhibition rate rB ([7]; series B: intratumoral injection): 4.6%

From US20230405063A1, “USE OF PROBIOTIC COMPONENT AND PHARMACEUTICAL COMPOSITION CONTAINING PROBIOTIC COMPONENT” (CHENGDU KUACHANGAOPU MEDICAL TECHNOLOGY CO., LTD., priority 2020, published 2023)
